In brackets after ≈: the same amount, converted by molar mass.

Assay [1] relates to extracts of Escherichia coli (E. coli S30). Description: In vitro transcription/translation system with pGL3 luciferase readout. The assay is classed as biochemical. The conditions noted are these: 10 μM; FIG. 1. How it is done:
The structure of ovatodiolide is similar to that of the medicines in antibiotics for inhibiting protein generation. In order to understand whether the mechanism of ovatodiolide for inhibiting Helicobacter Pylori is related to protein synthesis, let ovatodiolide and extracts of Escherichia coli (E. coli S30) to take effect for 10 minutes by using in vitro transcription/translation systems. Then, pGL3 luciferase is added for carrying out transcription and translation reaction for 2 hours. Finally, the reacted sample is added with luciferin for it to present color by using Dual-Luciferase Reporter Assay System. Then, microplate luminometer is used to determine the […] in order to find out whether ovatodiolide can inhibit protein synthesis.
Among them, inhibition of 30S subunit using kanamycin and inhibition of […] using erythromycin are used as control groups.

The next assay has as its system Hp v633. Description: Minimum bactericidal concentration, serial dilution and spread plate method. The assay is classed as cell-based, Helicobacter pylori. Particulars: cultivated six hours; multidrug-resistant strain v633. How it is done: (§1) Different concentrations of ovatodiolide are prepared by using serial dilution method, and Helicobacter pylori type strain and multidrug-resistant gastric Helicobacter pylori (v633, v1354) separated from laboratory are cultivated for six hours respectively. Then, ovatodiolide is analyzed by using spread plate method to observe the number of colony growth, and analyze the minimum bactericidal concentrations of ovatodiolide for completely killing Helicobacter pylori type strain and multidrug-resistant strains. Based on the results on Table 2, the minimum bactericidal concentration of ovatodiolide for Helicobacter pylori type strain is 200 μM, and the minimum bactericidal concentrations for multidrug-resistant strains v633 and v1354 are 100 μM.

For assay [2], the system named is Hp reference strain 26695. The assay is described as above. In kind it is cell-based, Helicobacter pylori. The conditions noted are these: cultivated six hours; type strain 26695. How it is done: as §1
For another assay, the system named is Hp v1354. The description is as above. The assay is classed as cell-based, Helicobacter pylori. The conditions noted are these: cultivated six hours; multidrug-resistant strain v1354. How it is done:
as §1

Assay [3] relates to protein RpsB in 30S ribosomal subunit. Description: Western blot analysis of RpsB content in Helicobacter pylori lysates. Particulars: H. pylori cultivated with ovatodiolide of different concentrations for 6 hours; FIG. 2. The assay is classed as cell-based. How it is done: In this embodiment, the process of protein translation has three steps, namely, initiation, elongation and termination of ribosomes. In order to further analyze whether ovatodiolide is effected on ribosomes causing protein synthesis unable to proceed smoothly, western blot analysis is used to determine the content of protein RpsB in 30S ribosomal subunit. Helicobacter pylori is cultivated with ovatodiolide of different concentrations for 6 hours, and extract total cell lysates. Separate total cell lysates by using 10% SDS-PAGE, transfer protein using PVDF membrane, and carry out hybridization with protein using RpsB antibody. Then, detect RpsB antibody using anti-rabbit antibody; finally, a chromogenic reagent is added, and observe results by using the apparatus Azure C400 Biosystems.
FIG. 2 is an expression of 30S ribosomal subunits RpsB analyzed by using western blot analysis. Wherein kanamycin (400 μM) and erythromycin (400 μM) are used as control groups.
In general terms: A western blot detects proteins with antibodies after separation by electrophoresis.

Assay [4] deals with Helicobacter pylori type strain (H. pylori 26695). Nature of the assay: Minimum bacteriostatic concentration by agar-well diffusion (inhibitory rings). In kind it is cell-based. Particulars: for Inhibitory rings: cultivated two days. The protocol:
Different concentrations of ovatodiolide disks are used to cultivate with Helicobacter pylori for two days respectively. Then, the minimum concentrations for inhibiting Helicobacter pylori are determined by using agar-well diffusion. The results are used for analyzing the minimum concentration of ovatodiolide for inhibiting the growth of Helicobacter pylori type strain (H. pylori 26695). […] Based on the experimental results, 10 μM and 20 μM of ovatodiolide have inhibitory rings; the diameters of the inhibitory rings are 10±0.5 mm and 19±0 mm respectively. This proves that the minimum bacteriostatic concentration of ovatodiolide for inhibiting Helicobacter pylori is 10 μM.
(In general: A growth-free zone around the sample is the usual read-out of agar diffusion tests.)

`C=C1C(=O)O[C@@H]2/C=C(\C)C[C@H]3C=C(CC/C=C(\C)CC[C@@H]12)C(=O)O3` [ovatodiolide]: in assay [1], the “inhibition of protein synthesis” value was “more than 50%”. For the same compound, the Minimum bactericidal concentration in the assay with Hp v633 was determined as 100 µM (≈ 32.8 µg/mL); in assay [2], 200 µM (≈ 65.7 µg/mL); in the assay with Hp v1354 it was 100 µM (≈ 32.8 µg/mL). Also, the “expression of protein RpsB” value in assay [3] was “reduces significantly”. In assay [4] (agar-well diffusion, H. pylori 26695), this compound registered a minimum bacteriostatic concentration of 10 µM. The Inhibitory rings in assay [4] (ovatodiolide 10 μM) came out at 10±0.5 mm; in assay [4] (ovatodiolide 20 μM), 19±0 mm.

Source of the values: US20190358198A1, “USE OF OVATODIOLIDE FOR PREPARING A COMPOSITION FOR INHIBITING PROTEIN SYNTHESIS OF GASTRIC HELICOBACTER PYPORI” (Syi Biotechnology Co.,Ltd., priority 2018, published 2019).
